Data on nine molecules can be found in patent US20050049294A1, “Methods of using [3.2.0] heterocyclic compounds and analogs thereof” (priority 2003, published 2005).

Like-named read-outs stand apart in the source and are kept apart here.

In one series the test system is RPMI 8226 cells. As to the kind of experiment: Cell growth inhibition (resazurin, 48 hours), RPMI 8226. (Alamar Blue is a resazurin reagent that responds to reducing activity.)
The subject of a further series is U266 cells. As to the kind of experiment: Cell growth inhibition (resazurin, 48 hours), U266.
For series [1], the target named is T1, chymotrypsin-like activity of rabbit muscle 20S proteasomes (Oryctolagus cuniculus, UniProt G1T4Q9).
T1 sequence (G1T4Q9 1-263): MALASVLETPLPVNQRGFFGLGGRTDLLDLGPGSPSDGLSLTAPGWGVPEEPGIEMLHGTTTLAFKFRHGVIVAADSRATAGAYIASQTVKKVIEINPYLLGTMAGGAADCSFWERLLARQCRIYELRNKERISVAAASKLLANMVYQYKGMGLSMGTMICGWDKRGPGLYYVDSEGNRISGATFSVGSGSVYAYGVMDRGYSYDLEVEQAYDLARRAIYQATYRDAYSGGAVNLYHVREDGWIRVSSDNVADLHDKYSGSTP
The series is described as follows: Inhibition of chymotrypsin-like activity of purified rabbit muscle 20S proteasome (suc-LLVY-AMC). The class given is biochemical. Particulars: Table 3; mean EC50; purified rabbit 20S proteasomes; read-out: EC50 Values, Chymotrypsin-like. The procedure:
This peptide substrate is specific for the chymotrypsin-like enzyme activity of the proteasome.
Omuralide was prepared as a 10 mM stock in DMSO and stored in 5 μL aliquots at −80° C. […] The assay measures the hydrolysis of Suc-LLVY-AMC into Suc-LLVY and AMC. The released coumarin (AMC) was measured fluorometrically by using λex=390 nm and λem=460 nm. The assays were performed in a microtiter plate (Corning 3904), and followed kinetically with measurements every five minutes. The instrument used was a Thermo Lab Systems Fluoroskan, with the incubation chamber set to 37° C. The assays were performed according to the manufacturer's protocol, with the following changes. The proteasome was activated as described with SDS, and held on ice prior to the assay. […] Ten microliters of each dose were added in triplicate to the assay plate, and 190 μL of the activated proteasome was added and mixed. The samples were pre-incubated in the Fluoroskan for 5 minutes at 37° C. Substrate was added and the kinetics of AMC were followed for one hour.

The target in series [2] is PGPH (caspase-like) activity of rabbit muscle 20S proteasomes (Oryctolagus cuniculus, UniProt A0A5F9DQW2). The series is described as follows: Inhibition of caspase-like (PGPH) activity of 20S proteasome (Z-LLE-AMC). The class given is biochemical. The conditions noted are these: Table 3; mean EC50; purified rabbit 20S proteasomes. The procedure:
A commercially available fluorogenic substrate specific for the PGPH activity was used instead of the chymotrypsin substrate supplied in the proteasome assay kit described above.
The substrate Z-LLE-AMC was prepared as a 20 mM stock solution in DMSO, stored at −20° C. The source of the proteasomes was the commercially available kit from Calbiochem (Cat. #539158). As with the chymotrypsin substrate, the proteasome can cleave Z-LLE-AMC into Z-LLE and free AMC. The activity can then be determined by measuring the fluorescence of the released AMC (λex=390 nm and λem=460 nm). The proteasomes were activated with SDS and held on ice as per manufacturer's recommendation. […] The series was diluted 20-fold with assay buffer and preincubated with the proteasomes as described for the chymotrypsin-like activity. After addition of substrate, the samples were incubated at 37° C., and release of the fluorescent AMC was monitored in a fluorimeter. All data were collected and plotted as the mean of triplicate points. […] As before, the model chosen was a sigmoidal dose-response, with a variable slope.

Series [3] concerns the target T2, trypsin-like activity of purified rabbit 20S proteasomes (Oryctolagus cuniculus, UniProt G1SWK8).
T2 sequence (G1SWK8 1-271): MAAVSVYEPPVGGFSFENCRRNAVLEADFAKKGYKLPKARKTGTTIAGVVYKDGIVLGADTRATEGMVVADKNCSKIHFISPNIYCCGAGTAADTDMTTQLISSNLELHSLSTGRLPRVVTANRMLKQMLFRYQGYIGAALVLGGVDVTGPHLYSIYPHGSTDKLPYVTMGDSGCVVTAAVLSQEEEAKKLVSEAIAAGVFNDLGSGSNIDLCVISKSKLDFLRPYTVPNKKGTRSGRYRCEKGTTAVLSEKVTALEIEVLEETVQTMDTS
Particulars: under the conditions tested.

For series [4], the system named is LeTx-induced cytotoxicity of RAW264.7 cells. The series is described as follows: cells. The conditions noted are these: Mus musculus, RAW264.7, read-out: EC50 (nM), inhibition of RAW 264.7 cell cytotoxicity mediated by anthrax lethal toxin.
The target in series [5] is T2, trypsin-like activity of purified rabbit 20S proteasomes. As to the kind of experiment: biochemical.
The test system of series [6] is NF-κB-mediated luciferase activity in HEK293 NF-κB/Luc cells. The series is described as follows: NF-κB-mediated luciferase reporter gene assay. The class given is cell-based, human. The conditions noted are these: pretreatment of NF-κB/Luc 293 cells. The procedure: The HEK293 NF-κB/luciferase reporter cell line is a derivative of the human embryonic kidney cell line (ATCC; CRL- 1573) and carries a luciferase reporter gene under the regulation of 5×NF-κB binding sites. […] When performing the luciferase assay, the DMEM basal medium was replaced with phenol-red free DMEM basal medium and the G418 was omitted.
For NF-κB-mediated luciferase assays, HEK293 NF-κB/luciferase cells were seeded at 1.5×10^4 cells/well in 90 μl phenol-red free DMEM complete medium into Corning 3917 white opaque-bottom tissue culture plates. […] This dilution series was further diluted 40× in appropriate culture medium and ten μl aliquots were added to the test wells in triplicate resulting in final test concentrations ranging from 1 μM to 320 pM. […] For Formula II-19, a 127 μM starting dilution was made in 100% DMSO and the final test concentrations ranging from 317 nM to 0.1 nM. […] After 1 hr pretreatment, 10 μl of a 50 ng/ml TNF-α solution, prepared in the phenol-red free DMEM medium was added, and the plates were incubated for an additional 6 hr.
NF-κB inducible luciferase activity was measured at 6 hours.
The HEK293 NF-κB/luciferase reporter cell line is a derivative of the human embryonic kidney cell line (ATCC; CRL-1573) and carries a luciferase reporter gene under the regulation of 5×NF-κB binding sites. […] When performing the luciferase assay, the DMEM basal medium was replaced with phenol-red free DMEM basal medium and the G418 was omitted.
For NF-κB-mediated luciferase assays, HEK293 NF-κB/luciferase cells were seeded at 1.5×10^4 cells/well in 90 μl phenol-red free DMEM complete medium into Corning 3917 white opaque-bottom tissue culture plates. For Formula II-2, Formula II-4 and Formula II-5A, a 400 μM starting dilution was made in 100% DMSO and this dilution was used to generate a 8-point half log dilution series. This dilution series was further diluted 40× in appropriate culture medium and ten μl aliquots were added to the test wells in triplicate resulting in final test concentrations ranging from 1 μM to 320 pM. […] After 1 hr pretreatment, 10 μl of a 50 ng/ml TNF-α solution, prepared in the phenol-red free DMEM medium was added, and the plates were incubated for an additional 6 hr.
The relative luciferase units (RLU) were measured by using a Fusion microplate fluorometer (Packard Bioscience).
In general terms: A reporter such as luciferase makes a cellular process visible.

The subject of another series is HT-29 cells. The series is described as follows: Cell growth inhibition (resazurin, 48 hours), HT-29. The class given is cell-based. The conditions noted are these: Homo sapiens, HT-29.
The subject of another series is MDA-MB-231 cells. The series is described as follows: Cell growth inhibition (resazurin, 48 hours), MDA-MB-231. The class given is cell-based. The conditions noted are these: Homo sapiens, MDA-MB-231.
The subject of the next series is NCI-H292 cells. The series is described as follows: Cell growth inhibition (resazurin, 48 hours), NCI-H292. The class given is cell-based, human. Particulars: Homo sapiens, NCI-H292, Table 13; NCI-H292.
A further series concerns PC-3 cells. The series is described as follows: Cell growth inhibition (resazurin, 48 hours), PC-3. The class given is cell-based, human. The conditions noted are these: Homo sapiens, PC-3.
Another series concerns MES-SA cells. As to the kind of experiment: Cell growth inhibition (resazurin, 48 hours), MES-SA.
The test system of a further series is MES-SA/Dx5 cells. As to the kind of experiment: cells.
[7] abbreviates: Homo sapiens, RPMI-8226, read-out: RPMI 8226 EC50 (nM), Table 15, mean EC50.
Setting [8] is: Homo sapiens, U-266, read-out: U266 EC50 (nM), Table 15, mean EC50.

PGPH (caspase-like) activity of rabbit muscle 20S proteasomes, sequence (A0A5F9DQW2 1-212): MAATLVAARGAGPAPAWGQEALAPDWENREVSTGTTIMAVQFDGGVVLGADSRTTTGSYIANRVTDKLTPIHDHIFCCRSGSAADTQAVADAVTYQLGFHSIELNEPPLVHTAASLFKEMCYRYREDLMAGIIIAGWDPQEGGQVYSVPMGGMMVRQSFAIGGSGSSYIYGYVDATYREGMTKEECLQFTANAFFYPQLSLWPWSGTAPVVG

One may read the EC50 as the concentration needed to bring the measured effect to its halfway point. For `CC12OC(=O)C1(C(=O)C1CCCCC1)NC(=O)C2CCCl` (stereo not drawn) [Formula II-8C], the EC50 in the series on RPMI 8226 cells (setting [7]) and with U266 cells (setting [8]) was above 20000 nM each time.

Regarding `CC12OC(=O)C1(C(=O)C1C=CCCC1)NC(=O)C2CCCl` (stereo not drawn) [Formula II-13C], the EC50 is 8200 nM in series [1]; above 20000 nM in series [2]; above 20000 nM in the series on RPMI 8226 cells (setting [7]); above 330 nM in [4]; 10700 nM in series [5]; above 20000 nM in the series with U266 cells (setting [8]). Also, the “inhibit the trypsin-like activity of the 20S proteasome” value (“inhibit the trypsin-like activity” below) in series [3] was “able to inhibit”.

In the case of `C[C@@]12OC(=O)[C@]1([C@@H](O)[C@@H]1C=CCCC1)NC(=O)[C@@H]2CCI` [Formula II-19], the EC50 amounted to 3 nM in series [1]; 573 nM in series [2]; 13 nM in the series on HT-29 cells; 17 nM with MDA-MB-231 cells; 31 nM in the series with NCI-H292 cells; 27 nM in the series with PC-3 cells. Besides, the EC50 is 5.9 nM in the series on RPMI 8226 cells (Homo sapiens, RPMI-8226, Table 13, RPMI 8226); 6.5 nM with RPMI 8226 cells (setting [7]); 7.1 nM with RPMI 8226 cells (Table 13, RPMI 8226); 13 nM in [5]; 3.2 nM in the series on U266 cells (Homo sapiens, U-266, Table 13, U266); 3.3 nM in the series with U266 cells (setting [8]). Moreover, a half-maximal effect in the series on U266 cells (Table 13, U266) (EC50) was put at 3.4 nM. Besides, the “luciferase activity upon TNF-α stimulation” value in [6] was “dose-dependent decrease”. In addition, the “inhibit the trypsin-like activity” value in series [3] is given as “able to inhibit”.

In the case of `C[C@H]1C(=O)N[C@@]2([C@@H](O)[C@@H]3C=CCCC3)C(=O)O[C@@]12C` [Formula II-20], the EC50 in [1] was determined as 5 nM; in series [2] it was 1400 nM; with RPMI 8226 cells (setting [7]), 10500 nM; in series [5], 318 nM; in the series on U266 cells (setting [8]) it was 3810 nM. Moreover, in [6], the “luciferase activity upon TNF-α stimulation” value is reported as “dose-dependent decrease”. Besides, the “inhibit the trypsin-like activity” value in series [3] was “able to inhibit”.

With `C[C@@]12OC(=O)[C@]1([C@@H](O)[C@@H]1C=CCCC1)NC(=O)[C@@H]2CCO` [Formula II-21], the EC50 amounted to 7 nM in [1], 2600 nM in series [2] and 720 nM in series [5]. Besides, the “luciferase activity upon TNF-α stimulation” value in series [6] was “dose-dependent decrease”. For the same molecule, the “inhibit the trypsin-like activity” value in series [3] is reported as “able to inhibit”.

Turning to `CCC(=O)OCC[C@H]1C(=O)N[C@@]2([C@@H](O)[C@@H]3C=CCCC3)C(=O)O[C@@]12C` [Formula II-22], the EC50 came to 5 nM in [1], 1300 nM in [2] and 308 nM in [5]. Also, in series [6], the “luciferase activity upon TNF-α stimulation” value is given as “dose-dependent decrease”. For the same molecule, the “inhibit the trypsin-like activity” value in series [3] is reported as “able to inhibit”.

For `CC[C@@]12OC(=O)[C@]1([C@@H](O)[C@@H]1C=CCCC1)NC(=O)[C@@H]2CCCl` [Formula II-24C], the EC50 in [1] was 2200 nM; in series [2] it was above 20000 nM; in series [5], 3200 nM. In addition, the “luciferase activity upon TNF-α stimulation” value in [6] is “dose-dependent decrease”. Further, the “inhibit the trypsin-like activity” value in series [3] was “able to inhibit”.

Take `C[C@@]12OC(=O)[C@]1([C@@H](O)[C@H]1CCC[C@H](Cl)[C@H]1O)NC(=O)[C@@H]2CCCl` [Formula IV-3C]: the EC50 was 7800 nM in [1]; above 20000 nM in [2]; above 20000 nM in the series with RPMI 8226 cells (setting [7]); above 330 nM in series [4]; 8020 nM with U266 cells (setting [8]).

As to `CC(=O)O[C@H]1C(=O)[C@@]2(C)[C@H]([C@H](OC(=O)c3ccccc3)[C@]3(O)C[C@H](OC(=O)[C@H](O)[C@@H](NC(=O)c4ccccc4)c4ccccc4)C(C)=C1C3(C)C)[C@]1(OC(C)=O)CO[C@@H]1C[C@@H]2O` [Paclitaxel, reference compound], in the series with MES-SA cells, the “% cytotoxicity, mean ± SD” value came out at 63 ± 7%. Besides, the EC50 with MES-SA cells (Homo sapiens, MES-SA, read-out: EC50 (nM) MES-SA, Table 16) stood at 5.6 nM; with MES-SA cells (Homo sapiens, MES-SA, read-out: EC50 (nM), mean, Table 7, MES-SA) it was 5 ± 2 nM; in the series on MES-SA cells (read-out: EC50 (nM) MES-SA, Table 16), 4.6 nM; with MES-SA/Dx5 cells (Homo sapiens, MES-SA/Dx5, read-out: EC50 (nM), mean ± SD, Table 7, MES-SA/Dx5), 2040 ± 150 nM. In the series on MES-SA/Dx5 cells (Table 16, ratio of EC50 values (MES-SA/Dx5:MES-SA)), the Fold change was found to be 798 fold.
